From PubChem BioAssay AID2305 (GlaxoSmithKline (GSK), 2010)

Tested on: P. falciparum 3D7 growth, pLDH absorbance
Test: P. falciparum 3D7 growth inhibition, dose response, strain 3D7 (AID 2305)

| Compound | IC50 [nM] |
| --- | --- |
| O=C(Nc1ccc(F)c(F)c1)c1ccc(CN2CCCN(Cc3cccc(F)c3)CC2)cc1 | 1120 |
| COc1ccc(C2(CNCC(O)c3cccc([N+](=O)[O-])c3)CCCC2)cc1OC (configuration not stated) | 890 |
| COC(=O)c1ccc(N2CCN(CCCCNC(=O)c3ccc(NC(=O)c4ccc(Cl)cc4)cc3)CC2)c(OC)c1 | 1300 |
| CCCCCCCc1c(C)[nH]c2ccccc2c1=O | 210 |
| CCCCCc1cnc2nc(N)nc(N)c2c1 | 1230 |
| O=C(Nc1ccc(-c2cccc(-c3nc4ccccc4[nH]3)c2)cc1)Nc1ccc(Cl)c(Cl)c1 | 460 |
| Cc1ccccc1CN1CCCN(Cc2ccc(C(=O)Nc3ccc(C(C)(C)C)cc3)cc2)CC1 | 860 |
| Cc1[nH]c(C)c(-c2cc3ccccc3o2)c(=O)c1Cl | 1720 |
| CCCCCCCn1c(=O)c(C(=O)Nc2c(C)cccc2C)c(O)c2ccccc21 | 910 |
| O=C1CCCN1CCCNCc1cccc(-c2ccc(-c3nc4ccccc4[nH]3)s2)c1 | 860 |
| CCCC(C)N(Cc1ccc(C(C)(C)C)cc1)C(=O)c1ccc(OC)cc1 (configuration not stated) | 110 |
| COc1ccccc1C1CCN(C2CCC(NC(=O)/C=C/c3ccc(F)c(F)c3)CC2)CC1 (configuration not stated) | 1320 |
| O=C(NC1CCN(CCC[C@]2(c3ccc(Cl)c(Cl)c3)CCCN(C(=O)c3ccccc3)C2)CC1)c1ccc(Cl)cc1 | 900 |
| O=C(Nc1ccc(C(=O)N2CCN(CCN3CCN(c4cccc(C(F)(F)F)c4)CC3)CC2)cc1)c1ccc(OC(F)(F)F)cc1 | 690 |
| CCN1CCC(N(CCCCCCCCc2ccc(C(F)(F)F)cc2)C(=O)Cn2c(CCc3cccc(F)c3F)cc(=O)c3ccccc32)CC1 | 1200 |
| CN1Cc2cc(NC(=O)/C=C/c3ccccc3Cl)ccc2C(C)(C)C1 | 640 |
| O=C(Nc1ccc(C(F)(F)F)cc1)N[C@H]1CCN(CCCCCNC(=O)[C@@H]2C[C@H]2c2ccc(Cl)c(Cl)c2)C1 | 1100 |
| Clc1ccc(C2CCN(CCCOc3ccc4c(c3)CCNCC4)CC2)cc1 | 750 |
| Cn1nc(-c2ccc(NC(=O)Nc3cc(C(F)(F)F)ccc3F)c(F)c2)c2cnc(NCCCN3CCOCC3)nc21 | 600 |
| CC1(C)N=C(N)NC(NOCC=Cc2ccccc2)=N1 | 230 |
| O=C(Nc1ccc(OC2CCN(Cc3ccc(F)cc3)C2)c(Cl)c1)c1ccc(F)cc1 (configuration not stated) | 490 |
| CC(C)C[C@@H]1C(=O)N[C@H](C2Cc3ccccc3C2)C(=O)N1[C@@H](C(=O)O)c1ccc(F)cc1F | 840 |
| CN1CCC(C(=O)Nc2cccc(-c3ccc(-c4nc5ccc(C(F)(F)F)cc5[nH]4)s3)c2)CC1 | 720 |
| COc1ccc(NC(=O)[C@H](CC(C)C)Nc2cc(C)nc(NCCOc3ccccc3)n2)cc1 | 800 |
| CC(C)Cn1cc(C2CCN(CCN3CCC(CNC(=O)c4ccc(NC(=O)c5ccc(Cl)cc5)cc4)CC3)CC2)c2ccccc21 | 250 |

| Compound | IC50 [nM] |
| --- | --- |
| COc1ccc(CCNC(=O)c2ccccc2O)cc1-c1ccc(C(C)(C)C)cc1 | 560 |
| COc1cccc(-c2cnc(N)c(-c3nc4ccc(F)cc4[nH]3)c2)c1 | 850 |
| Cc1cc(N2CCCC2)nc(Nc2ccc(NC(=O)c3ccco3)cc2)n1 | 840 |
| COc1ccc2c(OC)cccc2c1CNCCCCCCNCc1c(OC)ccc2c(OC)cccc12 | 690 |
| COc1c(C2CCN(CCCCNC(=O)c3cc(-c4ccc(Cl)cc4)[nH]c3C)CC2)ccc2c1CCCC2 | 970 |
| CCOc1cc(C)ccc1C1CCN(CCN2CCC(CNC(=O)c3ccc(-c4ccc(C(F)(F)F)cc4)cc3)CC2)CC1 | 700 |
| CSC1=NC2(CC(c3cccc(C)c3)c3cc(Cl)c(O)cc3O2)CC(C)(C)N1 (configuration not stated) | 880 |
| O=C(Cn1c(SCc2cccc(F)c2F)cc(=O)c2ccccc21)N(CCn1ccnc1)Cc1ccc(-c2ccc(C(F)(F)F)cc2)cc1 | 770 |
| COCCNCc1ccc(-c2cccc(CNc3ccc(OC)cc3)c2)cc1 | 1040 |
| COc1cc(C)nc2ccc(NC(=O)c3ccc(C(=O)Nc4ccc5nc(C)cc(OC)c5c4)cc3)cc12 | 60 |
| Cc1cccc2[nH]c(-c3ccc(-c4cccc(CN5CCC(C(N)=O)CC5)c4)cc3)nc12 | 1770 |
| O=C(Nc1ccccc1O)C1CCN(c2ncnc3cc(-c4ccc(F)cc4)sc23)CC1 | 870 |
| CC(CCc1ccc(OCc2ccccc2)cc1)NCC(O)c1ccccc1 (configuration not stated) | 1100 |
| COc1ccc2nccc([C@@H](O)CN3CCC(NC(=O)/C=C/c4cccc(-c5ccccc5)c4)CC3)c2c1 | 250 |
| CN1CCCc2ccc(NC(=O)c3cc(-c4ccc(Cl)cc4)cs3)cc2C1 | 790 |
| CCOc1cc(Cc2cnc(N)nc2N)cc(OCC)c1-n1cccc1 | 760 |
| Cc1cccc2[nH]c(-c3ccc(-c4cccc(NC(=O)Nc5ccc(F)c(F)c5F)c4)cc3)nc12 | 340 |
| O=C(NC1CCN(CCN2CCC(c3ccccc3C(F)(F)F)CC2)CC1)c1ccc(-c2ccc(Cl)cc2)cc1 | 710 |
| CCCCCC1c2[nH]c3ccccc3c2CCN1C(=O)OCc1ccccc1 (configuration not stated) | 390 |
| Cc1ccc(C2CCN(CCCCNC(=O)c3ccc(NC(=O)c4ccc(Cl)cc4)cc3)CC2)c(OCC(F)(F)F)c1 | 280 |
| CC[C@H]1CN(Cc2cccc(O)c2)CC[C@H]1CCCc1ccnc2ccc(O)cc12 | 530 |
| COc1ccc(OC)c(NC(=O)CSc2nc(-c3ccccc3Cl)ns2)c1 | 830 |
| Cc1cccc2[nH]c(-c3ccc(-c4cccc(CNCCN5CCNCC5)c4)cc3)nc12 | 1230 |
| O=C(NCCN1CCOCC1)c1csc(C2CCCN(C(=O)c3ccc(O)c(-c4cc(Cl)cc(Cl)c4)c3)C2)n1 (configuration not stated) | 1030 |
| CCOc1ccc(/C=C/C(=O)Nc2cccc3c2CCN(C)C3)cc1 | 1110 |

| Compound | IC50 [nM] |
| --- | --- |
| COc1cc2c(cc1S(=O)(=O)c1ccc(OCc3ccc(Cl)cc3)cc1)CCN(Cc1ccc(NC(C)=O)s1)CC2 | 920 |
| c1cc(CN2CCN(c3ccncc3)CC2)cc(-c2cccc(-c3nc4ccccc4[nH]3)c2)c1 | 130 |
| O=C(/C=C/c1ccc(Cl)c(Cl)c1)N1CCC(CN2CCC(Cc3cc4ccccc4[nH]3)CC2)CC1 | 630 |
| CCOC(=O)c1cc(C(=O)OC)c2ccccn12 | 220 |
| COc1cc(Nc2nccc(N3CCC(NS(=O)(=O)c4ccc(NC(C)=O)cc4)CC3)n2)cc(OC)c1OC | 970 |
| COc1ccc2nccc(NN=Cc3ccccc3F)c2c1 | 620 |
| CC[C@H]1CN2CC[C@@H]1C[C@H]2[C@H](O)c1cc(N2CCC(O)CC2)nc2ccc(OC)cc12 | 170 |
| COc1ccc(-c2ccc(NC(=O)c3ccc(C#N)cc3)cc2)cc1CN1CCCC1 | 870 |
| Fc1cccc(COc2ccc(Nc3ncnc4sc(C#C[C@H]5CC[C@H](CNCC(F)(F)F)N5)cc34)cc2Cl)c1 | 1420 |
| CN1CCN(c2ccnc3ccc(NC(=O)Nc4ccc(-c5ccccc5)cc4)cc23)CC1 | 780 |
| COc1ccc2nc(C)cc(NN=Cc3ccccc3Cl)c2c1 | 600 |
| COc1cccc(Cc2cnc3nc(N)nc(N)c3c2C)c1 | 170 |
| CC(C)(C)CC(C)(C)c1ccc(O)c(CNC2CCCCC2)c1 | 60 |
| CO/C(=C\C=C\c1cc2cc(Cl)c(Cl)cc2[nH]1)C(=O)NCCN1CCCCC1 | 1400 |
| Cc1cc(N[C@@H](Cc2ccccc2)C(=O)NCc2cccc(F)c2)nc(NCCOc2ccccc2)n1 | 790 |
| c1cc(COc2ccc(C3=NCCN3)cc2)nc(COc2ccc(C3=NCCN3)cc2)c1 | 150 |
| CCCN(Cc1ccc(OCC)cc1)Cc1cc(=O)c2cc(Cl)ccc2[nH]1 | 1260 |
| COc1ccccc1CCNc1nc(C)cc(NCCC(=O)NCCOc2ccccc2)n1 | 1370 |
| CC1CCC(C[C@@H](C(=O)N[C@H](C(=O)Nc2nccs2)[C@@H](C)O)[C@H](CCC(F)(F)F)N(O)C=O)CC1 (some centres not stated) | 540 |
| CN1CCc2cc(NC(=O)c3cc4ccccc4s3)cc(-c3ccccc3)c2CC1 | 890 |
| CCCCNc1cc(C)nc(NCc2ccccc2)n1 | 970 |
| COc1ccc(CCNCc2ccc3nc(N)c(C)cc3c2)cc1 | 990 |
| O=C(Nc1cccc(F)c1)c1ccc(C(=O)NC2CCN(CC3CCCCC3)C2)cc1 (configuration not stated) | 930 |
| CNCCNCc1ccc(-c2ccc(-c3nc4ccc(C(F)(F)F)cc4[nH]3)s2)cc1 | 600 |
| O=C(/C=C/c1ccc(Cl)c(Cl)c1)NCCCCCN1CCC(NC(=O)c2cc(Cl)ccc2F)CC1 | 1160 |

| Compound | IC50 [nM] |
| --- | --- |
| Cc1cc(F)ccc1-c1nc(N(C)CCN(C)C(=O)N(C)c2ccccc2)nc2c1ccc(=O)n2-c1c(F)cccc1F | 1240 |
| Cc1cc(Oc2cc(NC(=O)c3sc4ncn(Cc5ccccc5F)c(=O)c4c3C)cc([N+](=O)[O-])c2)ccc1Cl | 1150 |
| CC[C@H](NC(=O)c1c(CC2CCN(CC(C)=O)CC2)c(-c2ccccc2)nc2ccccc12)c1ccccc1 | 380 |
| N#Cc1ccc2c(c1)CCN(CCC1CCC(NC(=O)c3cc4cccc([N+](=O)[O-])c4[nH]3)CC1)C2 (configuration not stated) | 680 |
| COCC(=O)N(Cc1ccccc1-c1cccc(CNCCc2ccccc2)c1)C1CCN(Cc2ccccc2)CC1 | 1100 |
| CC(=O)Nc1ccc(CN(Cc2ccc(C)cc2)Cc2cccc(Oc3ccccc3)c2)cc1 | 1050 |
| COc1cccc2c(Nc3ccccc3C)nc(Nc3ccccc3C)nc12 | 680 |
| COc1cc(C(=O)NC2CCc3ccccc32)cc(Cl)c1OC (configuration not stated) | 1100 |
| COC(=O)c1cccc(CNCc2ccc(-c3ccc(-c4nc5ccc(F)cc5[nH]4)cc3)cc2)c1 | 240 |
| O=C(/C=C/c1ccc(Cl)c(Cl)c1)NCCCCCN1CCCN(C(=O)Nc2cc(Cl)nc(Cl)c2)CC1 | 790 |
| CCCCNCc1ccc(-c2nc(CN(CCCN3CCN(C)CC3)C(=O)Nc3cccc(Cl)c3)cs2)cc1 | 970 |
| O=C(/C=C/c1ccc(Cl)c(Cl)c1)NCCCCCN1CCCN(C(=S)Nc2cccc(Cl)c2)CC1 | 1050 |
| CN1CCN(CCCSc2ccc3c(c2)ncn3-c2cc(OCc3ccccc3C(F)(F)F)c(C(N)=O)s2)CC1 | 440 |
| COc1cc(Cc2cnc(N)nc2N)c2ccsc2c1OC | 1070 |
| CCCC(=O)Nc1ccc(Nc2nc(C)cc(N3CCCC3)n2)cc1 | 1490 |
| CN(C)c1cccc(CN2CC=C(c3c[nH]c4ccc(Cl)cc34)CC2)c1 | 660 |
| OCCN1CCN(Cc2ccc(-c3cccc(-c4nc5ccc(F)cc5[nH]4)c3)cc2)CC1 | 610 |
| CCN(CC)CC(O)CNc1c2ccc([N+](=O)[O-])cc2nc2cc(OC)c(OC)cc12 (configuration not stated) | 270 |
| Oc1cc2c(cc1CN1CCN(Cc3cccs3)CC1)CCC2 | 840 |
| COc1ccc2ncc(F)c(CCN3C[C@H](CNCc4ccc(F)cc4)[C@H](O)C3)c2n1 | 820 |
| CCCCCN=C(N)N/N=C/c1c[nH]c2ccc(OC)cc12 | 960 |
| COc1ccc(-c2cc(-c3ccc(S(C)(=O)=O)cc3)cnc2N)cn1 | 190 |
